Source: publication PMC7470027, “Synthesis and structure-activity relationships of novel 5-(hydroxamic acid)methyl oxazolidinone derivatives as 5-lipoxygenase inhibitors” (Journal of Enzyme Inhibition and Medicinal Chemistry, 2020)
pIC50: −log10 of the molar value.

Legend:
[1] = system: isolated human monocytes; assay: In vitro toxicity testing, MTT viability; format: cell-based; details: concentrations up to 50 μM, 3 h or 24 h
Description: Adherent human monocytes, prepared as described above were cultured with various concentrations of the test compounds or vehicle, or with 0.05% Triton-X as a positive control for 3 h or 24 h. At the end of the culture, cell viability was determined using the standard MTT assay method. Briefly, 15 μL of the MTT solution (5 mg/ml) was added to each well and incubated at 37 °C for 4 h. After removing the supernatant, 200 μL of DMSO was added to dissolve the crystals. Absorbance at 570 nm was then measured in a microplate reader. Viability was expressed as a percentage of the vehicle-treated cells.

[2] = system: 5-LO product LTC4 from allergen/IgE-activated bone marrow-derived mouse mast cells (BMMC); assay: Inhibition of 5-LO product LTC4 from allergen/IgE-activated bone marrow-derived mouse mast cells (BMMC); format: cell-based; details: Mus musculus; anti-DNP IgE/DNP-BSA-activated BMMC; 95% confidence interval in brackets; read-out: Mouse mast cell LTC4 IC50 (CI)
Description: Bone marrow-derived mast cells (BMMC) were generated from pathogen-free 5 to 7-weeks-old male Balb/c mice according to the method of Davis et al.[28]. Essentially, bone marrow cells were obtained by flushing the femoral bone marrow and the recovered cells cultured in RPMI 1640 medium supplemented with 10% FBS, 100 U/ml penicillin, and 100 µg/ml streptomycin, 25 mM HEPES, 1.0 mM sodium pyruvate, 0.1 mM nonessential amino acids, 0.0035% 2-mercaptoethanol, and 30 ng/ml mouse recombinant IL-3, with culture medium, replaced every 2 days. Cells were used after 4–8 weeks of culture, by which time at least 97% of the cells would have differentiated into mast cells, as routinely obtained in our laboratory.
The generated BMMCs were seeded at 5 × 10^4 cells/well in a 96-well flat-bottom culture plate and passively sensitised overnight with 0.5 µg/ml anti-DNP monoclonal IgE antibody. The cells were then washed twice to remove any unbound antibody and subsequently resuspended in reaction buffer (135 mM NaCl, 5 mM KCl, 1.8 mM CaCl2, 1 mM MgCl2, 5.6 mM glucose, 0.05% BSA and 20 mM HEPES, pH 7.4). They were then pre-incubated with the test compounds (0.001 − 30 μM) or the solvent (0.05% DMSO) for 15 min before being stimulated with the specific antigen, DNP-BSA (10–30 ng/ml). After 30 min incubation at 37 °C, the amount of LTC4 released into the supernatant was determined by ELISA as described below.
(§1) Appropriately diluted supernatants were assayed for the released products – LTs (LTB4 and LTC4), by the enzyme immunoassay (EIA) method using assay kits supplied by R&D Systems (Minneapolis, MN) and following the manufacturer’s instructions.
(§2) All data were analysed using GraphPad Prism software (GraphPad Software, San Diego, CA). […] Differences between experimental groups were first analysed by one-way ANOVA, followed by Bonferroni’s post-hoc test. A p-value of less than 0.05 was taken as statistically significant.

[3] = system: 5-LO product LTC4 from isolated human monocytes; assay: Inhibition of 5-LO product LTC4 from isolated human monocytes (A23187); format: cell-based; details: Monocyte, calcium ionophore A23187, 95% confidence interval in brackets, read-out: Human monocyte LTC4 IC50 (CI)
Description: Mononuclear cells were first isolated from heparinised blood using the Ficoll-Hypaque gradient centrifugation method. Monocytes were subsequently purified by adherence to plastic according to standard protocols. The purity of the adherent monocytes (CD14+) was routinely confirmed by flow cytometry to be >95% and viability (by trypan blue exclusion method) was routinely >97%. Adherent monocytes were then washed and incubated in 190 µl culture medium RPMI-1640 supplemented with 100 U/ml penicillin, 100 µg/ml streptomycin and 10% heat-inactivated foetal bovine serum (Sigma-Aldrich, St Louis, MO). […] After further incubation for 15 min, the culture supernatants were recovered by centrifugation and stored at −40 °C pending LTC4 determination.
as §1, §2

[4] = system: 5-LO-dependent generation of LTB4 from activated human whole blood; assay: Inhibition of 5-LO product LTB4 from activated human whole blood (LPS/FMLP); format: cell-based; details: LPS-primed, FMLP-stimulated human whole blood; 95% confidence interval in brackets; read-out: Human whole blood LTB4 IC50 (CI)
Description: All compounds were evaluated for inhibitory activity against the 5-LO-dependent generation of LTB4 from activated human whole blood. With ethical approval from the Health Sciences Centre Ethical Committee of Kuwait University, heparinised fresh human blood samples from apparently healthy individuals of both sexes were obtained from the Kuwait Central Blood Bank. All donors gave informed consent and the work was carried out in accordance with the “Declaration of Helsinki” for experiments involving human subjects. Aliquots of 185 µl of whole blood were dispensed into each well of a 96-well culture plate containing 5 µl of the priming agent, LPS (1 µg/ml final concentration). […] After further incubation for 15 min at 37 °C, 5 µl of FMLP (1 µM final concentration) was added to stimulate LT production. The reaction was stopped 15 min later, and the supernatants were recovered by centrifugation and stored at −40 °C pending analysis of LTB4 content.
as §1, §2

[5] = system: zymosan-induced peritoneal inflammation; assay: Zymosan-induced peritoneal inflammation model in mice; format: in vivo, mouse; details: for Inhibition of total LTC4 content of the peritoneal lavage fluid: p < 0.001 vs zymosan plus vehicle
Description: Female Balb/c mice 6 to 8-weeks-old obtained from the Animal Resources Centre of the Health Sciences Centre, Kuwait University, were used. They were maintained under temperature-controlled conditions with an artificial 12-h light/dark cycle and allowed standard chow and water ad libitum. The study was carried out in compliance with the Regulations for the Use of Laboratory Animals in the Health Sciences Centre, Kuwait University, and complied with the National Institute of Health guide for the care and use of laboratory animals (NIH Publication # 8023, revised 1978). The zymosan-induced peritonitis model - a recognised LT-mediated inflammatory reaction, was used. […] After 30 min, all groups were injected intraperitoneally with 0.2 ml of activated zymosan (2 mg/ml) except the control group that received 0.2 ml PBS. After 2 h, all animals were killed, and the peritoneal exudate collected by washing the cavity with 3 ml of heparinised (10 IU/ml) PBS. Cells in the exudate were recovered by centrifugation and counted in a haemocytometer while the supernatant volume was recorded and then stored frozen at −78 °C until used for the determination of LTC4 by ELISA as detailed above.

[6] = 10 mg/kg subcutaneously 30 min before zymosan

CCCCCCC(=O)N(O)C[C@H]1CN(c2ccc(N3CCOCC3)c(F)c2)C(=O)O1 [PH-249, (R)-N-((3-(3-fluoro-4-morpholinophenyl)-2-oxooxazolidin-5-yl)methyl)-N-hydroxyheptanamide]
Effect on viability of isolated human monocytes (MTT) [1]: no significant effect on cell viability
pIC50 [2]: 5.89
pIC50 [3]: 6.05
pIC50 [4]: 6.15
Inhibition of cellular infiltration (total cellular content of peritoneal lavage) [5, 6]: only the inhibition by the higher dose reached statistical significance
Inhibition of total LTC4 content of the peritoneal lavage fluid [5, 6]: highly significant inhibition
Inhibition of total LTC4 content of the peritoneal lavage fluid ([5]; 30 mg/kg subcutaneously 30 min before zymosan): highly significant inhibition
Inhibition of cellular infiltration (total cellular content of peritoneal lavage) ([5]; 30 mg/kg subcutaneously 30 min before zymosan, p < 0.01 vs zymosan plus vehicle): reached statistical significance
